Data on five sequences can be found in article PMC4182091, “A Common Minimal Motif for the Ligands of HLA-B*27 Class I Molecules” (PLoS ONE, 2014).

Like-named read-outs stand apart in the source and are kept apart here. Ends that are not written are not given here. Some results are limits rather than exact numbers.

Type in all cases: cell-based
For one test, the target named is T1, HLA-B*2709 (Homo sapiens, UniProt P01889, D138H/D201E/E176V/E204Q/G107R/H137Y/K202T/N104T/N87E/Q56L/Q94K/R106L/R155S/R180L/S101D/S121N/S48T/Y140H/Y33H/Y91C).
T1 construct: expressed in transfected cells; host or cells: RMA-S (TAP-deficient murine cell line)
Briefly: HLA/peptide complex stability assay, RMA-S cells transfected with HLA-B*2709. To be noted: for fluorescence index, B*2709: peptide 200 µM, mean ± S.D. of three to five independent experiments.

The next test concerns the target T2, HLA-B*2701 (Homo sapiens, UniProt P01889, D138H/D201E/D98Y/E176V/E204Q/G107R/H137Y/K202T/L105A/N104T/N87E/Q56L/Q94K/R106L/R155S/R180L/S101N/S121N/S48T/Y140D/Y33H/Y91C).
T2 construct: expressed in transfected cells; host or cells: RMA-S (TAP-deficient murine cell line)
Briefly: HLA/peptide complex stability assay, RMA-S cells transfected with HLA-B*2701. Conditions: for fluorescence index, B*2701: peptide 200 µM, mean ± S.D. of three to five independent experiments, SD.

A further test deals with T3, HLA-B*2705 (Homo sapiens, UniProt P01889, D138H/D201E/E176V/E204Q/G107R/H137Y/K202T/N104T/N87E/Q56L/Q94K/R106L/R155S/R180L/S101D/S121N/S48T/Y140D/Y33H/Y91C).
T3 construct: expressed in transfected cells; host or cells: RMA-S (TAP-deficient murine cell line)
Briefly: HLA/peptide complex stability assay, RMA-S cells transfected with HLA-B*2705. Conditions: for fluorescence index, B*2705: peptide 200 µM, mean ± S.D. of three to five independent experiments.

For a further test, the target named is T4, HLA-B*2703 (Homo sapiens, UniProt P01889, D138H/D201E/E176V/E204Q/G107R/H137Y/K202T/N104T/N87E/Q56L/Q94K/R106L/R155S/R180L/S101D/S121N/S48T/Y140D/Y33H/Y83H/Y91C).
T4 construct: expressed in transfected cells; host or cells: RMA-S (TAP-deficient murine cell line)
Briefly: HLA/peptide complex stability assay, RMA-S cells transfected with HLA-B*2703. Conditions: for fluorescence index, B*2703: peptide 200 µM, mean ± S.D. of three to five independent experiments.

Another test deals with HLA-B*2704 (Homo sapiens, UniProt P01889, A235G/D138H/D201E/E204Q/G107R/H137Y/K202T/N104T/N87E/Q56L/Q94K/R106L/R155S/R180L/S121N/S48T/Y140D/Y33H/Y91C). The test is described as follows: HLA/peptide complex stability assay, RMA-S cells transfected with HLA-B*2704. Conditions: for fluorescence index, B*2704: peptide 200 µM, mean ± S.D. of three to five independent experiments.

A further test deals with T5, HLA-B*2706 (Homo sapiens, UniProt P01889, A235G/D201E/E204Q/G107R/H137Y/K202T/N104T/N87E/Q56L/Q94K/R106L/R155S/R180L/S121N/S48T/Y33H/Y91C).
T5 construct: expressed in transfected cells; host or cells: RMA-S (TAP-deficient murine cell line)
Briefly: HLA/peptide complex stability assay, RMA-S cells transfected with HLA-B*2706. Conditions: for fluorescence index, B*2706: peptide 200 µM, mean ± S.D. of three to five independent experiments.

The target in a further test is HLA-B*2702 (Homo sapiens, UniProt P01889, D138H/D201E/E176V/E204Q/G107R/H137Y/K202T/L105A/N104I/N87E/Q56L/Q94K/R106L/R155S/R180L/S101N/S121N/S48T/Y140D/Y33H/Y91C). The test is described as follows: HLA/peptide complex stability assay, RMA-S cells transfected with HLA-B*2702. Conditions: for fluorescence index, B*2702: peptide 200 µM, mean ± S.D. of three to five independent experiments.

[1] abbreviates: relative affinity (EC50 class), B*2709.
Where [2] appears, read: relative affinity (EC50 class), B*2701.
[3] abbreviates: relative affinity (EC50 class), B*2705.
Setting [4] is: relative affinity (EC50 class), B*2703.
Where [5] appears, read: relative affinity (EC50 class), B*2704.
[6] abbreviates: relative affinity (EC50 class), B*2706.
[7] abbreviates: relative affinity (EC50 class), B*2702.

For the sequence “ARANNVLKNEM [A1-NP 184-194, monosubstituted Ala analog of HRSV NP 184-194, […]]”, the “fluorescence index, B*2709” value on HLA-B*2709 (SD) is given as 1.8±0.1. The “fluorescence index, B*2701” value on HLA-B*2701 is listed as 2.0±0.1. Also, the “fluorescence index, B*2705” value at HLA-B*2705 (SD) is 2.4±0.3. In addition, the “fluorescence index, B*2703” value on HLA-B*2703 (SD) was found to be 1.4±0.1. Also, the “fluorescence index, B*2704” value on HLA-B*2704 (SD) was 2.2±0.2. Further, the “fluorescence index, B*2706” value at HLA-B*2706 (SD) was found to be 3.0±0.3. Also, the “fluorescence index, B*2702” value at HLA-B*2702 (SD) stood at 2.0±0.3.

For the sequence “ARYKGLLPKDI [A1-NP 195-205, monosubstituted Ala analog of HRSV NP 195-205, […]]”, at HLA-B*2709 (SD), the “fluorescence index, B*2709” value is on record as 1.8±0.2. On HLA-B*2701, the “fluorescence index, B*2701” value came out at 1.9±0.1. In addition, the “fluorescence index, B*2705” value on HLA-B*2705 (SD) was determined as 2.4±0.3. At HLA-B*2703 (SD), the “fluorescence index, B*2703” value turned out to be 2.1±0.2. For the same sequence, the “fluorescence index, B*2704” value on HLA-B*2704 (SD) stood at 2.2±0.3. Moreover, the “fluorescence index, B*2706” value at HLA-B*2706 (SD) is on record as 2.7±0.3. The “fluorescence index, B*2702” value on HLA-B*2702 (SD) is given as 1.8±0.1.

A word on the EC50: it is the concentration needed to bring the measured effect to its halfway point. For the sequence GRNEVFSNK [L 2089-2097], the EC50 on HLA-B*2709 (EC50, B*2709, SD) was 68 ± 24 µM; on HLA-B*2709 (setting [1]) it was 61 to 200 µM; at HLA-B*2701 (read-out: EC50, B*2701), > 200 µM; at HLA-B*2701 (setting [2]) it was > 200 µM; on HLA-B*2705 (EC50, B*2705, SD), 32 ± 6 µM; on HLA-B*2705 (setting [3]), 20 to 60 µM. Also, the EC50 on HLA-B*2703 (EC50, B*2703, SD) is 71 ± 28 µM; on HLA-B*2703 (setting [4]) it was 61 to 200 µM; on HLA-B*2704 (EC50, B*2704, SD) it was 169 ± 57 µM; at HLA-B*2704 (setting [5]) it was 61 to 200 µM; at HLA-B*2706 (EC50, B*2706) it was > 200 µM; on HLA-B*2706 (setting [6]), > 200 µM. In addition, the EC50 at HLA-B*2702 (EC50, B*2702) is > 200 µM; on HLA-B*2702 (setting [7]) it was > 200 µM. Further, at HLA-B*2705, the “relative MHC class I affinity according to the EC50 value, in words (high, medium, low)” value (from here on “relative MHC class I affinity according”) is “medium”.

For the sequence HRFIYLINH [NS2 37-45], the EC50 on HLA-B*2709 (EC50, B*2709, SD) was 33 ± 9 µM; at HLA-B*2709 (setting [1]) it was 20 to 60 µM; on HLA-B*2701 (read-out: EC50, B*2701), > 200 µM; on HLA-B*2701 (setting [2]) it was > 200 µM; on HLA-B*2705 (EC50, B*2705, SD) it was 7 ± 4 µM; at HLA-B*2703 (EC50, B*2703, SD), 10 ± 5 µM. Besides, the half-maximal effective concentration (EC50) on HLA-B*2704 (EC50, B*2704, SD) was 78 ± 33 µM; at HLA-B*2704 (setting [5]) it was 61 to 200 µM; at HLA-B*2706 (EC50, B*2706, SD), 45 ± 19 µM; on HLA-B*2706 (setting [6]), 20 to 60 µM; on HLA-B*2702 (EC50, B*2702, SD), 77 ± 14 µM; on HLA-B*2702 (setting [7]), 61 to 200 µM. The “relative MHC class I affinity according” value at HLA-B*2705 is “high”.

As to HRQDINGKEM [NP 100-109], the EC50 on HLA-B*2709 (EC50, B*2709, SD) was 24 ± 7 µM; at HLA-B*2709 (setting [1]), 20 to 60 µM; at HLA-B*2701 (EC50, B*2701), > 200 µM; on HLA-B*2701 (setting [2]), > 200 µM; at HLA-B*2705 (EC50, B*2705, SD) it was 50 ± 15 µM; on HLA-B*2705 (setting [3]) it was 20 to 60 µM. The EC50 was 96 ± 43 µM at HLA-B*2703 (EC50, B*2703, SD); 61 to 200 µM at HLA-B*2703 (setting [4]); 67 ± 27 µM on HLA-B*2704 (EC50, B*2704, SD); 61 to 200 µM at HLA-B*2704 (setting [5]); 3 ± 2 µM at HLA-B*2706 (EC50, B*2706, SD); 132 ± 53 µM on HLA-B*2702 (EC50, B*2702, SD). Besides, on HLA-B*2702 (setting [7]), the half-maximal effective concentration (EC50) lay in the range of 61 to 200 µM. On HLA-B*2705, the “relative MHC class I affinity according” value was “medium”.
